Assay results: US11110080B2, “Small molecule inhibitors of bacterial efflux pumps and methods of using same” (The Regents of the University of Colorado, a body Corporate, priority 2017, dated 2021)
Several values for one entry are separate records, joined by “and”; a condition that tells them apart may be missing. Equal entries are not always repeated. Entries after “also recorded” stand apart in the source; their conditions may differ. Where two headings read alike, the source gives them in different places.

Experiments:
S.Tm efflux pumps [1] = assay: Hoechst 33342 accumulation assay; format: cell-based, Salmonella enterica serovar Typhimurium
Description: Efflux pumps (EPs) represent a key pathogen virulence strategy to protect against host antimicrobials as well as therapeutic antibiotics. […] To uncover putative EPMs within our collection of hits, 58 repurchased compounds were screened in a Hoechst accumulation assay. Bacteria were incubated with Hoechst 33342, a dye which fluoresces when bound to DNA.
Hoechst accumulation assays were performed essentially as described in the literature. Briefly, overnight Salmonella cultures were washed 3 times in PBS and diluted to an OD of 0.1 in PBS with 2.5 μM Hoechst 33342 in the presence of the indicated concentrations of compounds. Fluorescence was monitored on a Biotek Synergy 2 with a 360/40 nm excitation filter and 460/40 nm emission filter. The maximum Hoechst fluorescence over 60 minutes of incubation was normalized to the signal from the equivalent number of heat-killed bacteria, after subtraction of autofluroescent signal determined from compound incubated in the absence of bacteria. Curve fitting to determine EC50s was performed using GraphPad Prism.

[2] = test system: S.Tm wild-type SL1344, MAR1 and S10801; assay: microbe, parasite or virus in culture; format: cell-based, Salmonella enterica serovar Typhimurium; conditions: for sensitivity of MDR S.Tm to tetracycline: MAR1 and S10801
Description: Increased expression or function of efflux pumps often contributes to clinical multidrug resistance. Therefore, whether the EPMs re-sensitize two multidrug resistant strains of S.Tm to tetracycline was tested. Tetracycline is an antibiotic exported by AcrAB. The MAR1 strain is derived from wild-type SL1344 was selected by exposure to tetracycline, and has increased expression of the AcrAB efflux pump. S10801 is an MDR strain isolated from the mesenteric lymph node of a septic calf and is resistant to tetracycline, ampicillin, chloramphenicol, nalidixic acid, and triple sulfa. The basis of multi-drug resistance in this strain is unknown.
(§1) Overnight Salmonella cultures were washed 3 times in PBS and diluted to an OD of 0.01 in Mueller Hinton Broth in 96-well flat bottom plates. Compound was added using a pin tool (CyBio) or manually, yielding a final concentration of no more than 1% DMSO. Plates were grown at 37° C. shaking and OD600 was monitored using a BioTek Eon incubator shaker microplate absorbance reader. For experiments in defined media, bacteria were grown in M9 minimal media supplemented with 100 mM Tris pH 7.4, 0.35% glycerol, 0.002% histidine, 10 mM MgCl2, and 0.1% casamino acids. Where indicated, media was supplemented with 5 μg/ml polymyxin B or 0.2 mM H2O2. For experiments with LL-37, bacteria were grown in M9 minimal media supplemented with 0.4% dextrose, 0.004% histidine, 1 mM MgSO4, and 5 μg/ml LL-37. For checkerboard assays, MIC was defined as the concentration at which no growth was visually observed.

Enterobacter cloacae = assay: Nile Red export in MDR clinical isolate; format: cell-based; conditions: after glucose addition
Text: (§2) Six pathogens that cause the bulk of MDR nosocomial infections have been dubbed the ESKAPE pathogens: Enterococcus faecium, Staphylococcus aureus, Klebsiella pneumoniae, Acinetobacter baumannii, Pseudomonas aeruginosa, and Enterobacter species (56).
(§3) Referring to FIGS. 22A-22D: Defined strains obtained from BEI resources were examined for Nile Red retention after glucose addition in the presence of the indicated compound. *p<0.05; **p<0.01; ***p<0.001; ****p<0.0001 as determined by comparison to DMSO+glucose with a one-way ANOVA and Dunnett's multiple comparison post-test.
(§4) Nile Red assays were adapted from an established protocol. Briefly, overnight Salmonella cultures were grown in Mueller-Hinton cation-adjusted broth (Sigma), washed, and resuspended at an OD600 of 2.0. Cells were incubated in 10 μM Nile Red for 3 hours at 37° C. with aeration, then moved to room temperature for 1 hour. After pelleting at 2000× g, dye-loaded cells were aliquoted and combined with compound at the indicated concentrations. Two hundred microliters was loaded into 96-well black walled plates (Greiner) and read using a Varioskan Flash Multimode Reader with 540 nm excitation and 625 nm emission filters. We observed that during loading into plates (˜20 minutes), bacteria were able to efflux Nile Red even in the absence of glucose (FIG. 8A). […]

S.Tm efflux pumps [3] = assay: Nile Red efflux assay; format: cell-based, Salmonella enterica serovar Typhimurium; conditions: for glucose-activated efflux of Nile Red: 100 μM; for Nile Red efflux after washout of compound: 15 minutes with compound, washed, then glucose; for Nile Red fluorescence in the absence of glucose (basal loss): no glucose
Text: Because Hoechst and other dyes commonly used to assess efflux bind cellular components, direct measurement of efflux is not possible using these methods; instead, the Hoechst assay measures dye accumulation, the net result of entry and efflux. Further, the slow off-rate of Hoechst entails that efflux pumps have no effect on dye already bound to DNA. As a result, compounds which increase Hoechst accumulation may actually enhance dye entry by altering porins or disrupting the membrane. To more specifically measure efflux pump activity, a second technique was employed using the dye Nile Red, a lipophilic membrane-partitioning dye which fluoresces in nonpolar environments. Because Nile Red is not known to bind cellular components, to directly observe efflux cells were preloaded with the dye in the absence of glucose to reduce efflux pump activity (FIG. 7A). Upon addition of glucose, bacteria rapidly effluxed Nile Red and fluorescence returned to baseline levels (FIG. 7B, top panel). […] The initial measured fluorescence was lower for DMSO-treated cells (upper dotted line) than for PAβN-treated cells due to glucose-independent efflux during sample preparation (FIG. 8A). Next, it was determined whether efflux pump activity is restored after removal of PAβN. Bacteria were incubated with compound for 15 minutes, pelleted and resuspended in buffer lacking compound, and then stimulated with glucose (FIGS. 7C, 7E).
Nile Red assays were adapted from an established protocol. Briefly, overnight Salmonella cultures were grown in Mueller-Hinton cation-adjusted broth (Sigma), washed, and resuspended at an OD600 of 2.0. Cells were incubated in 10 μM Nile Red for 3 hours at 37° C. with aeration, then moved to room temperature for 1 hour. After pelleting at 2000× g, dye-loaded cells were aliquoted and combined with compound at the indicated concentrations. Two hundred microliters was loaded into 96-well black walled plates (Greiner) and read using a Varioskan Flash Multimode Reader with 540 nm excitation and 625 nm emission filters. We observed that during loading into plates (˜20 minutes), bacteria were able to efflux Nile Red even in the absence of glucose (FIG. 8A). To activate efflux, glucose was added to a final concentration of 2 mM. In some experiments, bacteria were treated with drug for 15 minutes, pelleted at 16,000×g, resuspended in fresh buffer, and stimulated with 2 mM glucose. All wash and incubation steps were performed in PBS with 1 mM MgCl2; incubations were performed in glass tubes to reduce adhesion of Nile Red.

[4] = test system: extracellular S.Tm grown in MHB broth; assay: Broth activity assay (growth / MIC in Mueller Hinton Broth); format: cell-based, Salmonella enterica serovar Typhimurium; conditions: Salmonella enterica, three Salmonella strains SL1344, MAR1, S10801
Description: as §1

E. coli = assay: Nile Red export in E. coli; format: cell-based; conditions: after glucose addition
Text: as §2, §3, §4

SMILES	Hoechst assay EC50 relative to PAβN (S.Tm efflux pumps [1])	Hoechst accumulation / fluorescence (S.Tm efflux pumps [1]; wild-type S.Tm, 60 minutes)	decrease of the tetracycline MIC ([2]; 50 μM (⅛ MIC), both strains MAR1 and S10801) [fold]	sensitivity of MDR S.Tm to tetracycline [2]	Nile Red export (Enterobacter cloacae)	glucose-activated efflux of Nile Red (S.Tm efflux pumps [3])	Nile Red efflux after washout of compound (S.Tm efflux pumps [3])	Nile Red fluorescence in the absence of glucose (basal loss) (S.Tm efflux pumps [3])	MIC [4]	Nile Red export (E. coli)	Hoechst accumulation / fluorescence (S.Tm efflux pumps [1])
OC(COc1ccc(Cl)c(Cl)c1)CN1CCC(Nc2nccc(C(F)(F)F)n2)CC1 (stereo not drawn) [EPM35]	lower than that of PAβN	increased S.Tm accumulation of Hoechst in a dose-dependent manner; also recorded: fluorescence comparable to that of PAβN	4	increased sensitivity to tetracycline	significantly reduced Nile Red export	fully inhibited efflux	remained unable to efflux	inhibit basal loss of Nile Red	400 µM and 186 µg/mL	significantly reduced Nile Red export	–
Cc1ccc(Sc2cccc3nc(N)nc(N)c23)cc1 [EPM43]	–	–	–	not	significantly reduced Nile Red export	only partially inhibited efflux	partially effluxed Nile Red after compound washout; also recorded: partially restored Nile Red export	inhibit basal loss of Nile Red	> 400 µM and 113 µg/mL	significantly reduced Nile Red export	increased S.Tm accumulation of Hoechst in a dose-dependent manner; also recorded: fluorescence comparable to that of PAβN
